In patent US6362134B1, “Herbicidal 1,2,4,6-thiatriazines” (Syngenta Investment Corporation, priority 1996, dated 2002):

What was measured:
Format in all cases: in vivo
Sinapis [1] = assay: Post-emergent herbicidal action (contact herbicide); design: key: 1=complete damage; 9=no action; Ratings of 1 to 4 (in particular 1 to 3) mean a good to very good herbicidal action; settings: 2000 g of active substance/ha, sprayed in the 4- to 6-leaf stage, evaluated after about 18 days, ratings scale 1-9
Description: (§1) Monocotyledon and dicotyledon test plants are grown in plastic pots with standard soil in a greenhouse and, in the 4- to 6-leaf stage, are sprayed with an aqueous suspension of the test substances of the formula 1, prepared from a 25% wettable power (Example F3, b)), corresponding to a dosage of 2000 g of active substance/ha (500 l of water/ha). The test plants are then grown further in the greenhouse under optimum conditions. After a test period of about 18 days, the test is evaluated with a ratings scale of 9 levels (1=complete damage, 9=no action). Ratings of 1 to 4 (in particular 1 to 3) mean a good to very good herbicidal action.
(§2) Test plants: Sinapis, Stellaria

Stellaria [2] = assay: as above; design: key: 1=complete damage; 9=no action; Ratings of 1 to 4 (in particular 1 to 3) mean a good to very good herbicidal action; settings: 2000 g of active substance/ha, sprayed in the 4- to 6-leaf stage, evaluated after about 18 days, ratings scale 1-9
Description: as §1, §2

Avena = assay: Herbicidal action before emergence of the plants (pre-emergent action); settings: 2000 g of active substance/ha, sprayed immediately after sowing, evaluated after 3 weeks, ratings scale of nine levels (1=complete damage, 9=no action)
Description: (§3) Monocotyledon and dicotyledon test plants are sown in standard soil in plastic pots. Immediately after sowing, the test substances are sprayed on (500 l of water/ha) in an aqueous suspension prepared from a 25% wettable powder (Example F3, b)), corresponding to a dosage of 2000 g of active substance/ha. The test plants are then grown under optimum conditions in a greenhouse. After a test period of 3 weeks, the test is evaluated with a ratings scale of nine levels (1=complete damage, 9=no action). Ratings of 1 to 4 (in particular 1 to 3) mean a good to very good herbicidal action.
(§4) Test plants: Avena, Setaria, Sinapis, Stellaria

Setaria = assay: as above; design: key: 1=complete damage; 9=no action; Ratings of 1 to 4 (in particular 1 to 3) mean a good to very good herbicidal action; settings: 2000 g of active substance/ha, sprayed immediately after sowing, evaluated after 3 weeks, ratings scale of nine levels
Description: as §3, §4

Sinapis [3] = assay: as above; design: key: 1=complete damage; 9=no action; Ratings of 1 to 4 (in particular 1 to 3) mean a good to very good herbicidal action; settings: 2000 g of active substance/ha, sprayed immediately after sowing, evaluated after 3 weeks, ratings scale of nine levels
Description: as §3, §4

Stellaria [4] = assay: as above; design: key: 1=complete damage; 9=no action; Ratings of 1 to 4 (in particular 1 to 3) mean a good to very good herbicidal action; settings: 2000 g of active substance/ha, sprayed immediately after sowing, evaluated after 3 weeks, ratings scale of nine levels
Description: as §3, §4

| Structure (SMILES) | Post-emergent action, rating, Sinapis (Sinapis [1]) | Post-emergent action, rating, Stellaria (Stellaria [2]) | Pre-emergent action, rating, Avena (Avena) | Pre-emergent action, rating, Setaria (Setaria) | Pre-emergent action, rating, Sinapis (Sinapis [3]) | Pre-emergent action, rating, Stellaria (Stellaria [4]) |
| --- | --- | --- | --- | --- | --- | --- |
| NC1=NC(Oc2c(F)c(F)c(F)c(F)c2F)=NS(N2CC[C@H]3CCC[C@H]32)=N1 (relative stereo) [6.6] | 2 | 4 | – | – | – | – |
| NC1=NC(Oc2c(F)c(F)c(F)c(F)c2F)=NS(N2CC[C@H]3CCC[C@H]32)=N1 (relative stereo) [6.10] | – | – | 4 | 4 | 1 | 1 |
| NC1=NC(Oc2c(F)c(F)c(F)c(F)c2F)=NS(N2CCC[C@H]3CCC[C@H]32)=N1 (relative stereo) [6.27] | 2 | 3 | 4 | 3 | 2 | 1 |
| NC1=NC(Oc2cc(F)ccc2F)=NS(N2CC[C@H]3CCCC[C@H]32)=N1 (relative stereo) [6.120] | 2 | 4 | – | – | – | – |
| NC1=NS(N2CCC[C@H]3CCCC[C@H]32)=NC(Oc2c(F)c(F)cc(F)c2F)=N1 (relative stereo) [6.331] | 1 | 2 | 4 | 2 | 1 | 1 |
| CCC(C)(C)C1CCC(OS2=NC(N)=NC(Oc3c(F)c(F)c(F)c(F)c3F)=N2)CC1 (stereo not shown) [5.59] | 1 | 3 | – | – | – | – |
| NC1=NC(Oc2c(F)c(F)c(F)c(F)c2F)=NS(OCC23CC4CC(CC(C4)C2)C3)=N1 (stereo not shown) [5.85] | 3 | 3 | – | – | – | – |
| CC1CC(OS2=NC(N)=NC(Oc3c(F)c(F)c(F)c(F)c3F)=N2)CC(C)(C)C1 (stereo not shown) [5.86] | – | – | 5 | 3 | 1 | 1 |
| CC1CCCC(OS2=NC(N)=NC(Oc3c(F)c(F)c(F)c(F)c3F)=N2)C1 (stereo not shown) [5.141] | 2 | 4 | – | – | – | – |
| CC1(C)CC(OS2=NC(N)=NC(Oc3c(F)c(F)c(F)c(F)c3F)=N2)CC(C)(C)C1 (stereo not shown) [5.146] | – | – | 4 | 1 | 1 | 1 |
| CC1(C)C2CCC1(C)C(OS1=NC(N)=NC(Oc3c(F)c(F)c(F)c(F)c3F)=N1)C2 (stereo not shown) [5.154] | 2 | 4 | – | – | – | – |
| CC(C)(C)C1CCC(OS2=NC(N)=NC(Oc3c(F)c(F)c(F)c(F)c3F)=N2)CC1 (stereo not shown) [5.316] | 2 | 4 | – | – | – | – |
| CC1CCCC(OS2=NC(N)=NC(Oc3c(F)c(F)c(F)c(F)c3F)=N2)C1 (stereo not shown) [5.317] | – | – | 4 | 2 | 2 | 1 |
| CC1CCCC(OS2=NC(N)=NC(Oc3cc(F)ccc3F)=N2)C1 (stereo not shown) [5.318] | 2 | 4 | – | – | – | – |
| CC1CCC(OS2=NC(N)=NC(Oc3c(F)c(F)c(F)c(F)c3F)=N2)CC1 (stereo not shown) [5.327] | – | – | 4 | 3 | 2 | 1 |
| NC1=NC(OCC(Cl)(Cl)C(F)(F)F)=NS(OCCCl)=N1 (stereo not shown) [5.337] | 1 | 5 | – | – | – | – |
| CN(C1CCCCC1)S1=NC(N)=NC(Oc2c(F)c(F)c(F)c(F)c2F)=N1 (stereo not shown) [6.7] | 2 | 3 | – | – | – | – |
| NC1=NC(Oc2c(F)c(F)c(F)c(F)c2F)=NS(NC2CCCCC2)=N1 (stereo not shown) [6.17] | 3 | 4 | – | – | – | – |

| Structure (SMILES) | Post-emergent action, rating, Sinapis (Sinapis [1]) | Post-emergent action, rating, Stellaria (Stellaria [2]) | Pre-emergent action, rating, Avena (Avena) | Pre-emergent action, rating, Setaria (Setaria) | Pre-emergent action, rating, Sinapis (Sinapis [3]) | Pre-emergent action, rating, Stellaria (Stellaria [4]) |
| --- | --- | --- | --- | --- | --- | --- |
| CCCN(CCC)S1=NC(N)=NC(Oc2c(F)c(F)c(F)c(F)c2F)=N1 (stereo not shown) [6.21] | 2 | 4 | – | – | – | – |
| CC1CC(C)CN(S2=NC(N)=NC(Oc3cc(F)ccc3F)=N2)C1 (stereo not shown) [6.23] | 2 | 4 | – | – | – | – |
| NC1=NC(Oc2c(F)c(F)c(F)c(F)c2F)=NS(N2CCCCC2)=N1 (stereo not shown) [6.53, 3-amino-5-pentafluorophenoxy-1-(piperidin-1-yl)thiatriazine] | – | – | 3 | 3 | 1 | 1 |
| NC1=NC(Oc2cc(F)ccc2F)=NS(N2CCCCCC2)=N1 (stereo not shown) [6.57] | 2 | 4 | – | – | – | – |
| CC1CCC(C)N1S1=NC(N)=NC(Oc2c(F)c(F)c(F)c(F)c2F)=N1 (stereo not shown) [6.63] | – | – | 4 | 3 | 1 | 1 |
| NC1=NC(Oc2c(F)c(F)c(F)c(F)c2F)=NS(N2CCN(c3ccccc3)CC2)=N1 (stereo not shown) [6.77] | – | – | 4 | 3 | 1 | 1 |
| NC1=NS(N2CC3CCC(CC3)C2)=NC(Oc2cc(F)ccc2F)=N1 (stereo not shown) [6.81] | 2 | 3 | – | – | – | – |
| CC1N(S2=NC(N)=NC(Oc3c(F)c(F)c(F)c(F)c3F)=N2)CCCC1(C)C (stereo not shown) [6.90] | 2 | 4 | – | – | – | – |
| NC1=NC(Oc2c(F)c(F)c(F)c(F)c2F)=NS(N2CCCC3CCCCCCC32)=N1 (stereo not shown) [6.102] | 2 | 3 | – | – | – | – |
| NC1=NC(Oc2cc(F)ccc2F)=NS(N2CCc3ccccc3CC2)=N1 (stereo not shown) [6.164] | 1 | 3 | – | – | – | – |
| CC1CC(NS2=NC(N)=NC(Oc3c(F)c(F)c(F)c(F)c3F)=N2)CC(C)(C)C1 (stereo not shown) [6.168] | 2 | 3 | – | – | – | – |
| NC1=NS(N2CCCCCCCCCCCC2)=NC(Oc2c(F)c(F)c(F)c(F)c2F)=N1 (stereo not shown) [6.177] | 2 | 2 | – | – | – | – |
| CC12CCCCC1N(S1=NC(N)=NC(Oc3c(F)c(F)c(F)c(F)c3F)=N1)CCC2 (stereo not shown) [6.181] | 2 | 3 | – | – | – | – |
| CC(C)N(C(C)C)S1=NC(Oc2c(F)c(F)c(F)c(F)c2F)=NC(N)=N1 (stereo not shown) [6.247] | 3 | 4 | – | – | – | – |
| CC1CCN(S2=NC(Oc3cc(F)ccc3F)=NC(N)=N2)CC(C)(C)C1 (stereo not shown) [6.249] | 1 | 2 | – | – | – | – |
| NC1=NS(N2CCC3CCCCC3CC2)=NC(Oc2c(F)c(F)c(F)c(F)c2F)=N1 (stereo not shown) [6.283] | 1 | 4 | – | – | – | – |
| NC1=NS(N2CCCCCCCCCC2)=NC(Oc2c(F)c(F)cc(F)c2F)=N1 (stereo not shown) [6.320] | 2 | 3 | – | – | – | – |
